Experimental data from patent publication US12492182B2, “Hydroxytriazine compounds and pharmaceutical use thereof” (Japan Tobacco Inc., priority 2015, dated 2025).
Like-named read-outs stand apart in the source and are kept apart here.

How the values were obtained:
A549 cell = experiment: Evaluation of PGE2 production inhibitory action using A549 cell (IL-1β stimulated); type: cell-based, human; details: for inhibition at 0.03 µM: IL-1β stimulation, at the highest concentration given (0.03 μM), read-out: cell PGE2 production inhibitory activity (%), printed in parentheses after the > bound
Method: Experimental Example 2: Evaluation of PGE2 Production Inhibitory Action Using A549 Cell
A549 cell (Japan Health Sciences Foundation Research Resources Bank), which is cell line derived from humans lung cancer, was suspended in assay medium (Ham's F-12K (Wako, #080-08565) containing 2% FBS (Hyclone Laboratories, #SH30910.03), 100 units/mL penicillin and 100 μg/mL streptomycin (Invitrogen, #15140-122)), the suspension was added at 2.5×10^4 cells/100 μL/well to 96 well flat-bottom plate (Corning, #353072), and the plate was left standing for 20 hr in a CO2 incubator set at 37° C. The test article was serially diluted with DMSO (Nacalai Tesque, #13407-45), and then 20-fold diluted with the assay medium to prepare a test article solution having a ten-fold concentration of the final concentration. The final DMSO concentration during the reaction was set to 0.5% (v/v). The medium was removed from the plate in which the cell was added, new assay medium was added at 160 μL/well to the plate, and the plate was left standing for 10 min in a CO2 incubator. Then, the test article solution was added at 20 μL/well to the plate, and the plate was left standing for 30 min in a CO2 incubator. Next, recombinant humans IL-1β (R&D Systems, #201-LB) as a stimulant to enhance PGE2 production due to increase of mPGES-1 mRNA expression was added at 20 μL/well (the final concentration was 1 ng/mL) to the plate, and the plate was left standing for 18 hr in a CO2 incubator. The supernatant was collected at 180 μL/well, and the PGE2 concentration was measured using Prostaglandin E2 assay (CISbio Bioassays, #62P2APEC) according to the manual. As the reference standard for analytical curve, PGE2 (Cayman Chemical, #14010) was used. Using EnVision 2104 (Perkin Elmer), the time-resolved fluorescence at 620 nm and 665 nm relative to the excitation light at 337 nm was measured. PGE2 concentration was extrapolated from the PGE2 analytical curve. Average of the PGE2 concentrations of the respectively-treated wells was used as the data.
The PGE2 production inhibitory activity (%) of the test article was calculated according to the following Formula 3. PGE2 production inhibitory activity(%)=(PGE2A−PGE2X)/(PGE2A−PGE2B)×100 [Formula 3] • PGE2A: PGE2 concentration of vehicle-treated well • PGE2B: PGE2 concentration of blank well (no addition of recombinant humans IL-1B) • PGE2X: PGE2 concentration of test article-treated well

human mPGES-1 = biological target: T1, human mPGES-1 (Homo sapiens, UniProt O14684); experiment: Evaluation of human mPGES-1 enzyme inhibitory activity (HTRF measurement of PGE2); type: biochemical; details: IC50 value; microsome fraction of CHO-S cells expressing human mPGES-1, PGH2 substrate, PGE2 by HTRF; read-out: humans mPGES-1 enzyme inhibitory activity
T1 construct: made in house; host or cells: Chinese hamster ovary-derived cells (FreeStyle CHO-S), transient transfection of pcDNA3.1(+)/human mPGES-1; microsome fraction
T1 sequence (O14684 1-152): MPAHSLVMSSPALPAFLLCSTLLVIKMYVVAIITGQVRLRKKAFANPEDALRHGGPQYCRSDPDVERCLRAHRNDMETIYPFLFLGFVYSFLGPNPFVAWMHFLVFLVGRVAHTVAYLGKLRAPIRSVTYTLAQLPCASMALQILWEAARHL
Method: Experimental Example 1: Evaluation of Human mPGES-1 Enzyme Inhibitory Activity
The human mPGES-1 enzyme inhibitory activity of a test article was evaluated according to the report of Xu et al. (XU, D et al. MF63 [2-(6-chloro-1H-phenanthro[9,10-d]imidazol-2-yl)-isophthalonitrile], a selective microsomal prostaglandin E synthase-1 inhibitor relieves pyresis and pain in preclinical models of inflammation. J Pharmacol Exp Ther. September 2008, Vol. 326, No. 3, pages 754-763). The amount of PGE2 produced by human mPGES-1 in the presence of a test article was measured by the HTRF (homogeneous time resolved fluorescence) method, and the human mPGES-1 enzyme inhibitory activity of the test article was determined.
1) Preparation of Human mPGES-1 Expressing Cell Microsome Fraction
A DNA fragment containing human mPGES-1, which is added with a BamHI recognition cleavage sequence just before the translation initiation codon and an EcoRI recognition cleavage sequence just after the translation termination codon, was amplified by the PCR (Polymerase Chain Reaction) method using a human mPGES-1 expression plasmid DNA (pME-18S/iPGES-1) prepared in-house as a template. The purified DNA fragment was digested with BamHI and EcoRI, and ligated to pcDNA3.1(+) (Invitrogen, model number V790-20), similarly_digested with BamHI and EcoRI, by using a DNA Ligation kit ver. 2.1 (Takara Bio, model number 6022). The human mPGES-1 expression plasmid DNA was isolated from Escherichia coli DH5a (TOYOBO, model number DNA-903) transformed with the obtained ligation product. The base sequence of human mPGES-1 cloned to a vector was determined by the Dye Terminator method using BigDye Terminator v3.1 Cycle Sequencing Kit (Applied Biosystems, #4337455). The determined sequence was identical with the sequence of the protein translational region of human mPGES-1 (Accession number NM 004878) registered in the NCBI Reference Database.
Human mPGES-1 expression plasmid DNA was transfected into Chinese hamster ovary-derived cells (FreeStyle CHO-S Cell, Invitrogen, #R^800-07) by using a transgene reagent (FreeStyle MAX Reagent (Invitrogen, #16447-100)), and cultured with shaking (8% CO2, 37° C.) in a medium containing 8 mmol/L L-glutamine (GIBCO FreeStyle CHO Expression Medium, Invitrogen, #12651-022) for 48 hr.
The CHO-S cells were suspended in Homogenate Buffer (100 mmol/L potassium phosphate (pH 7.4), 250 mmol/L Sucrose, 100 mmol/L EDTA, complete EDTA free (Roche, #1873580)). Using an ultrasonic disruptor UD-201 (Tomy Seiko), the suspended cells were disrupted at output:3, duty cycle:50 for 30 seconds. The precipitate was removed by centrifugation (1,000×g, 5 min, 4° C.), and the supernatant was centrifuged (5,000×g, 10 min, 4° C.). The supernatant was further centrifuged (105,000×g, 60 min, 4° C.). The obtained precipitate was suspended in Resuspension Buffer (100 mmol/L potassium phosphate (pH 7.4), 250 mmol/L sucrose, 100 mmol/L EDTA, 10% glycerol) to give a microsome fraction.
The protein concentration of the microsome fraction was measured by the Bradford method (Protein Assay Kit, Bio-Rad). The microsome fraction was rapidly frozen in liquid nitrogen and preserved at −80° C. Human mPGES-1 in the microsome fraction was detected by Western Blot using rabbit anti-mPGES-1 polyclonal antibody (ThermoFisher Scientific, #PA1-10264).
2) Evaluation of Human mPGES-1 Enzyme Inhibitory Activity
A test article solution diluted with 0.1 mol/L potassium phosphate, pH 7.4 (hereinafter to be referred to as KPB) or DMSO (Nacalai Tesque, #13407-45) was added at 5 μL/well to 96 well V-bottom plate (Corning, #3363). The final DMSO concentration during the reaction was set to 2%(v/v). Furthermore, a microsome fraction of CHO-S cells expressing human mPGES-1, which was diluted with reduced GSH (12.5 mmol/L KPB solution, SIGMA, #G6529-25G) such that the protein concentration was 5 μg/mL, was added at 20 μL/well. […]

[1] = Homo sapiens, A549, A549 cell, recombinant human IL-1β stimulation, read-out: cell PGE2 production inhibitory activity (IC50 value)
[2] = Homo sapiens, A549, 18 h, IC50 value, A549 cell, recombinant IL-1β 1 ng/mL, 18 hr, PGE2 in supernatant, read-out: cell PGE2 production inhibitory activity
[3] = A549 cell, recombinant human IL-1β stimulation, read-out: cell PGE2 production inhibitory activity (IC50 value)

IC50 (A549 cell; [1]) [nM]	IC50 (human mPGES-1) [nM]	IC50 (A549 cell; [2]) [nM]	IC50 (A549 cell; [3]) [nM]	Compound	inhibition at 0.03 µM (A549 cell; Homo sapiens, A549 cell) [%]
11	0.6	–	–	CCOCCCOc1ccc(-c2nc(O)nc(-c3cc(CNC(=O)C4(C(F)(F)F)CCCCC4)ccc3Cl)n2)cn1 [Example 68]	–
–	0.5	2.7	–	CC(C)c1cc(-c2nc(O)nc(-c3cc(CNC(=O)C(C)(C)C(F)(F)F)ccc3Cl)n2)ccc1Cl [Example 48, N-{4-chloro-3-[4-(4-chloro-3-isopropylphenyl)-6-hydroxy-1,3,5-triazin-2-yl]benzyl}-3,3,3-trifluoro-2,2-dimethylpropionamide]	–
–	3.9	2.2	–	CCCCCOc1ccc(-c2nc(O)nc(-c3cc(CNC(=O)C(C)(C)C(F)(F)F)ccc3Cl)n2)cn1 [Example 21]	–
–	12	2.9	–	CCCOc1ccc(-c2nc(O)nc(-c3cc(CNC(=O)C(C)(C)C(F)(F)F)ccc3Cl)n2)cc1C(C)C [Example 4]	–
> 30	1.8	–	–	CC(C)c1cccc(-c2nc(O)nc(-c3cc(CNC(=O)C4(C(F)F)CCCCCC4)ccc3Cl)n2)c1 [Example 120]	43
5.3	1.6	–	–	CC1(c2cccc(-c3nc(O)nc(-c4cc(CNC(=O)C5(C(F)(F)F)CCCCC5)ccc4Cl)n3)c2)CC1 [Example 64]	–
–	0.9	16	–	COC1(C(=O)NCc2ccc(Cl)c(-c3nc(O)nc(-c4cccc(C(C)(C)C)c4)n3)c2)CCCC1 [Example 22]	–
14	1.7	–	–	CC1(c2cccc(-c3nc(O)nc(-c4cc(CNC(=O)C5(C(F)(F)F)CCCC5)ccc4Cl)n3)c2)CC1 [Example 63]	–
–	1.4	–	2.4	CCC(OC)(C(=O)NCc1ccc(Cl)c(-c2nc(O)nc(-c3cccc(C(C)(C)C)c3)n2)c1)C(F)(F)F (stereo not drawn) [Example 133]	–
–	0.4	8.3	–	O=C(NCc1ccc(Cl)c(-c2nc(O)nc(-c3ccc(OC4CCC4)nc3)n2)c1)C1(C(F)(F)F)CCCCC1 [Example 60]	–
–	0.7	14	–	CCC1(C(=O)NCc2ccc(Cl)c(-c3nc(O)nc(-c4cccc(C(C)C)c4)n3)c2)CC1 [Example 8]	–
–	3.3	1.7	–	CC(C)(C)COc1ccc(-c2nc(O)nc(-c3cc(CNC(=O)C(C)(C)C(F)(F)F)ccc3Cl)n2)cn1 [Example 19]	–
88	1.3	–	–	CC(C)c1cccc(-c2nc(O)nc(-c3cc(CNC(=O)C(C)(C)CC(F)(F)F)ccc3Cl)n2)c1 [Example 76]	–
–	2.1	27	–	CCCCOc1cccc(-c2nc(O)nc(-c3cc(CNC(=O)C(C)(C)C(F)(F)F)ccc3Cl)n2)c1 [Example 3]	–
56	1.5	–	–	CC(C)c1cccc(-c2nc(O)nc(-c3cc(CNC(=O)C(C)(C)CF)ccc3Cl)n2)c1 [Example 70]	–
8.1	2.3	–	–	CCCOCCOc1ccc(-c2nc(O)nc(-c3cc(CNC(=O)C4(C(F)(F)F)CCCCC4)ccc3Cl)n2)cn1 [Example 69]	–
–	1.3	7.9	–	CC[C@@H](C)Oc1ccc(-c2nc(O)nc(-c3cc(CNC(=O)C(C)(C)C(F)(F)F)ccc3Cl)n2)cn1 [Example 42]	–
9.7	1.1	–	–	CO[C@](C)(C(=O)NCc1ccc(Cl)c(-c2nc(O)nc(-c3cccc(C4(C)CC4)c3)n2)c1)C(F)(F)F [Example 65]	–
–	3	170	–	CCOc1ccc(-c2nc(O)nc(-c3cc(CNC(=O)C4(OC)CCCC4)ccc3Cl)n2)cn1 [Example 37]	–
7.9	3.3	–	–	CC(C)(C)c1cccc(-c2nc(O)nc(-c3cc(CNC(=O)C4(C(F)F)CCCCCC4)ccc3Cl)n2)c1 [Example 121]	–
2.5	3.7	–	–	CC1(c2cccc(-c3nc(O)nc(-c4cc(CNC(=O)C(C)(C(F)(F)F)C(F)(F)F)ccc4Cl)n3)c2)CC1 [Example 89]	–
> 30	4.2	–	–	CCCc1cc(-c2nc(O)nc(-c3cc(CNC(=O)C(C)(C)C(F)(F)F)ccc3Cl)n2)cnc1OCC [Example 73]	47
–	1	86	–	CCOc1ccc(-c2nc(O)nc(-c3cc(CNC(=O)C4(OC)CCCCC4)ccc3Cl)n2)cn1 [Example 31]	–
2	2.7	–	–	CCC[C@@H](C)Oc1ccc(-c2nc(O)nc(-c3cc(CNC(=O)[C@@](C)(OC)C(F)(F)F)ccc3Cl)n2)cn1 [Example 80]	–
–	1.6	8.2	–	COC1(C(=O)NCc2ccc(Cl)c(-c3nc(O)nc(-c4cccc(C(C)(C)C)c4)n3)c2)CCCCC1 [Example 24]	–
–	2	–	5.4	CCC(OC)(C(=O)NCc1ccc(Cl)c(-c2nc(O)nc(-c3cccc(C(C)(C)C)c3)n2)c1)C(F)(F)F (stereo not drawn) [Example 135]	–
